Measured values: US20250205344A1, “2,4-DIOXOTETRAHYDROPYRIMIDINYL DERATIVES AS DEGRONS IN PROTACS” (GLAXOSMITHKLINE INTELLECTUAL PROPERTY DEVELOPMENT LIMITED, priority 2022, published 2025)
Structures can show the parent of a compound that is named as a salt.

target: T1, Androgen Receptor (Homo sapiens, UniProt P10275, T878A); experiment: Androgen Receptor Degradation Assay (Nano-Glo HiBiT); assay type: cell-based; conditions: LNCaP, 18 h, HiBiT-tagged AR in human LnCaP cells, read-out: mean asymptote max
T1 construct: the AR gene was modified, using CRISPR/Cas9 editing, so the expressed AR protein included an 11 amino acid HiBiT tag; endogenous in cells; host or cells: clonal LnCaP-derived line, AR gene edited by CRISPR/Cas9
Description: Degradation of Androgen Receptor protein in human LnCaP cells treated with PROTACs was quantified using the Nano-Glo® HiBiT Lytic Detection System (Promega) in 384 well assay plate format. A clonal LnCaP derived cell line was first established in which the AR gene was modified, using CRISPR/Cas9 editing, so the expressed AR protein included an 11 amino acid HiBiT tag at its amino-terminus. 10 mM DMSO stock solutions of PROTACs were prepared and diluted across an 11 concentration, 3 fold increment range, and 25 nL dispensed into a white opaque bottomed 384 well assay plate (Thermofisher) using an acoustic ECHO dispenser (Labcyte). […] For the assay, cells were detached from flask and resuspended with assay medium (FluoroBrite™ DMEM supplemented with 10% heat inactivated FBS, penicillin 50 U/mL and streptomycin 50 ug/mL (Thermofisher)). The cell suspension was centrifuged at 400 g for 5 min and the pellet resuspended in assay medium. 25 μL of cell suspension containing 10,000 cells was dispensed into each well of the assay plate containing the test compounds, which was then incubated for 18 h at 37° C./5% CO2. Control wells were included on each assay plate, with assay medium without cells being the no AR remaining 100% effect control, and cells treated with DMSO vehicle only, without PROTAC, the 0% effect control. 25 μL of Nano-Glo® HiBiT lysis buffer supplemented with LgBiT protein and Nano-Glo® substrate (Promega) was added to each well and the plate shaken at 500 rpm for 10 min at room temperature. The intensity of luminescence was measured using a PHERAstar microplate reader (BMG Labtech) and the % AR protein remaining in each well calculated by normalising the raw luminescence value to the above control wells. Parameters corresponding to the potency and efficacy estimates of the PROTACs were obtained from these normalised luminescence values using software (IDBS ActivityBase). These included the DC50 and the Dmax estimates. Two versions of the DC50, called relative DC50 and absolute DC50, were typically generated. These are the inflection point of a fitted 4 parameter sigmoidal response curve and the interpolated concentration of PROTAC corresponding to 50% of the protein being degraded, respectively. The Dmax parameter was the maximum experimentally observed degradation and the asymptote max parameter the fitted response curve asymptote maximum.

T1 sequence (P10275 whole entry T878A): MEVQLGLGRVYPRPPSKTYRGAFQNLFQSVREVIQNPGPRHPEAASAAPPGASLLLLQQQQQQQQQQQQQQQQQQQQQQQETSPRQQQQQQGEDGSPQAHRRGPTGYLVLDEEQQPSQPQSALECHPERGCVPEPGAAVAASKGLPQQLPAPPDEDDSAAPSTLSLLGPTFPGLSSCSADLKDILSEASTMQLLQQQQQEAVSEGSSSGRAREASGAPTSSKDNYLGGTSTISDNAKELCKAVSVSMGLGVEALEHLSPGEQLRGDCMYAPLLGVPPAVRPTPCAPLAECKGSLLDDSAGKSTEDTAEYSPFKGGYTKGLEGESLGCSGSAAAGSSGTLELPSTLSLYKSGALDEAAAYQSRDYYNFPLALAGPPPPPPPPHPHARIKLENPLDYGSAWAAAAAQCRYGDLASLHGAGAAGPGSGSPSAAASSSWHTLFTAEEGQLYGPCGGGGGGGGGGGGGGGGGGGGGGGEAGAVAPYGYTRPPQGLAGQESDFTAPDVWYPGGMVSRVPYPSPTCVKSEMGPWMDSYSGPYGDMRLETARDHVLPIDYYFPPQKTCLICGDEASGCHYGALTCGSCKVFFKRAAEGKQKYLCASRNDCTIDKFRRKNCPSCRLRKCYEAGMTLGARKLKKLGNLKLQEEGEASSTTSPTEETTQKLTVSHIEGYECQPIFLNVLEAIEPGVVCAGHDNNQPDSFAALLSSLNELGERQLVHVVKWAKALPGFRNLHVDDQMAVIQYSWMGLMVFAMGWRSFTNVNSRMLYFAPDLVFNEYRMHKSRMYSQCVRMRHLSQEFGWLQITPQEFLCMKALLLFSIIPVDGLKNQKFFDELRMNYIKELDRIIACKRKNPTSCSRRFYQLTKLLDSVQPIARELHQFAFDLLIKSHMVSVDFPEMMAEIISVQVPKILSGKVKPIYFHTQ
T1 sequence (Q96SW2 whole entry partner): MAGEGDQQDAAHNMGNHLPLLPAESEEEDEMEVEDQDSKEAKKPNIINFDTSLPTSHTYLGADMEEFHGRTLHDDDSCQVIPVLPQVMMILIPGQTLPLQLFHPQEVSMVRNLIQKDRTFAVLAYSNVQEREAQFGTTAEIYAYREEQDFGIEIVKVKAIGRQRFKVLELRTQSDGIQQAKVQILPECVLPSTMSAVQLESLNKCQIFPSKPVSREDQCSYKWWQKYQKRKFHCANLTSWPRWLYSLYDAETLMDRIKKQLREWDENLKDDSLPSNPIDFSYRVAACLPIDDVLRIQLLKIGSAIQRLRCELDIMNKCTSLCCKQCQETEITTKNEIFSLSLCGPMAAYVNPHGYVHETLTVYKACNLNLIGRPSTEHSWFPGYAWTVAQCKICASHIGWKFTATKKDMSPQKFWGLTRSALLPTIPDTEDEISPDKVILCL
T1 sequence (Q16531 whole entry partner): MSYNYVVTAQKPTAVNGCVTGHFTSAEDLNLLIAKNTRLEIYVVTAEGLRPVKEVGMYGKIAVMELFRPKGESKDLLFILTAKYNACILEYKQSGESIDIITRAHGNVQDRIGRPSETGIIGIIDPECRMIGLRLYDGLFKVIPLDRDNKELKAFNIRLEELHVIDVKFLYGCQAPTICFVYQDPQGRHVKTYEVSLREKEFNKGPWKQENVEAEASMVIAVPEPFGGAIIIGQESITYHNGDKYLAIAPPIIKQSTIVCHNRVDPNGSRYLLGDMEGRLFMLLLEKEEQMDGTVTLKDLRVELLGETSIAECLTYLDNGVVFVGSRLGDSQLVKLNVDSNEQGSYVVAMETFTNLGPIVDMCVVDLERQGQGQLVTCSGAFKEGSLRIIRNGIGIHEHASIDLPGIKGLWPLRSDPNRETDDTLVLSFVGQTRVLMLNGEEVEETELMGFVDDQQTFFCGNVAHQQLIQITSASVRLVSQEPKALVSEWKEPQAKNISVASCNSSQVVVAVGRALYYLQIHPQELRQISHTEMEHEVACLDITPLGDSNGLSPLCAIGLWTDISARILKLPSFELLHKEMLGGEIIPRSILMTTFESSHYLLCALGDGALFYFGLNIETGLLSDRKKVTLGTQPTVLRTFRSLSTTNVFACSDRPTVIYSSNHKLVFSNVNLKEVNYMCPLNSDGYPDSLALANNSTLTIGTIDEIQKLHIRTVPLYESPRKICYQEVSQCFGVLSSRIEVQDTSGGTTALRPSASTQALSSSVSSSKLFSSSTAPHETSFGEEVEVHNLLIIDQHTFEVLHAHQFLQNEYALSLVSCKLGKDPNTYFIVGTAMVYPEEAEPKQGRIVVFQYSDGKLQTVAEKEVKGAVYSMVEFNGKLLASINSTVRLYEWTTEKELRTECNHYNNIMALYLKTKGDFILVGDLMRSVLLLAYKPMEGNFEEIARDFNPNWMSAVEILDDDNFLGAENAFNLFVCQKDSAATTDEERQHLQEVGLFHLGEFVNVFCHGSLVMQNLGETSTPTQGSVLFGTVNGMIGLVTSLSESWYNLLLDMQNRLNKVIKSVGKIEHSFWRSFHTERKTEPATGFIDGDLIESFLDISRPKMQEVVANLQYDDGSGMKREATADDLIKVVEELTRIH

Row | Structure (SMILES) | Dmax
1 | N#Cc1ccc(O[C@H]2CC[C@H](NC(=O)c3ccc(N4CC5CC(CN6CCC(n7ncc8c(N9CCC(=O)NC9=O)cccc87)CC6)(C5)C4)nn3)CC2)cc1Cl [EAR219, N-((1r,4r)-4-(3-chloro-4-cyanophenoxy)cyclohexyl)-6-(1-((4-(4-(2,4-dioxotetrahydropyrimidin-1(2H)-yl)-1H-indazol-1-yl)piperidin-1-yl)methyl)-3-azabicyclo[3.1.1]heptan-3-yl)pyridazine-3-carboxamide] | ≥ 50%
2 | N#Cc1ccc(O[C@H]2CC[C@H](NC(=O)c3ccc(N4CC(CN5CCC(n6ncc7c(N8CCC(=O)NC8=O)cccc76)CC5)C4)nn3)CC2)cc1Cl [EAR154, N-((1r,4r)-4-(3-Chloro-4-cyanophenoxy)cyclohexyl)-6-(3-((4-(4-(2,4-dioxotetrahydropyrimidin-1(2H)-yl)-1H-indazol-1-yl)piperidin-1-yl)methyl)azetidin-1-yl)pyridazine-3-carboxamide, formic acid salt] | ≥ 50%
3 | N#Cc1ccc(O[C@H]2CC[C@H](NC(=O)c3ccc(N4CCC(C#N)(CCN5CCC(n6ncc7c(N8CCC(=O)NC8=O)cccc76)CC5)CC4)nn3)CC2)cc1Cl [EAR221, N-((1r,4r)-4-(3-chloro-4-cyanophenoxy)cyclohexyl)-6-(4-cyano-4-(2-(4-(4-(2,4-dioxotetrahydropyrimidin-1(2H)-yl)-1H-indazol-1-yl)piperidin-1-yl)ethyl)piperidin-1-yl)pyridazine-3-carboxamide] | ≥ 50%
4 | CC1(C)[C@H](NC(=O)c2ccc(N3CCC(CN4CCC(n5ncc6c(N7CCC(=O)NC7=O)nccc65)CC4)CC3)nc2)C(C)(C)[C@H]1Oc1cnc(C#N)c(Cl)c1 [EAR257, N-((1r,3r)-3-((5-Chloro-6-cyanopyridin-3-yl)oxy)-2,2,4,4-tetramethylcyclobutyl)-6-(4-((4-(4-(2,4-dioxotetrahydropyrimidin-1(2H)-yl)-1H-pyrazolo[4,3-c]pyridin-1-yl)piperidin-1-yl)methyl)piperidin-1-yl)nicotinamide] | ≥ 50%
5 | CC1(C)C(=O)N(c2ccc(C#N)c(C(F)(F)F)c2)C(=S)N1c1ccc(N2CCC(N3CCC(n4ccc5c(N6CCC(=O)NC6=O)cncc54)CC3)CC2)cc1 [EAR96, 4-(3-(4-(4-(4-(2,4-Dioxotetrahydropyrimidin-1(2H)-yl)-1H-pyrrolo[2,3-c]pyridin-1-yl)-[1,4′-bipiperidin]-1′-yl)phenyl)-4,4-dimethyl-5-oxo-2-thioxoimidazolidin-1-yl)-2-(trifluoromethyl)benzonitrile formate] | ≥ 50%
6 | N#Cc1ccc(O[C@H]2CC[C@H](NC(=O)c3ccc(N4CCC(CN5CCC(n6ncc7c(N8CCC(=O)NC8=O)cccc76)CC5)CC4)nc3)CC2)cc1C(F)(F)F [EAR40, N-((1r,4r)-4-(4-Cyano-3-(trifluoromethyl)phenoxy)cyclohexyl)-6-(4-((4-(4-(2,4-dioxotetrahydropyrimidin-1(2H)-yl)-1H-indazol-1-yl)piperidin-1-yl)methyl)piperidin-1-yl)nicotinamide hydrochloride] | ≥ 50%
7 | CC(C)n1ccc2c(N3CCC(=O)NC3=O)cc(C(=O)N3CCN(CC4CCN(c5ccc(C(=O)N[C@H]6C(C)(C)[C@H](Oc7ccc(C#N)c(Cl)c7)C6(C)C)nn5)CC4)CC3)cc21 [EAR78, N-((1r,3r)-3-(3-Chloro-4-cyanophenoxy)-2,2,4,4-tetramethylcyclobutyl)-6-(4-((4-(4-(2,4-dioxotetrahydropyrimidin-1(2H)-yl)-1-isopropyl-1H-indole-6-carbonyl)piperazin-1-yl)methyl)piperidin-1-yl)pyridazine-3-carboxamide] | ≥ 50%
8 | N#Cc1ccc(O[C@H]2CC[C@H](NC(=O)c3cnc(N4CCC(CN5CCC(n6ccc7c(N8CCC(=O)NC8=O)cccc76)CC5)CC4)nc3)CC2)cc1Cl [AR10, N-((1r,4r)-4-(3-Chloro-4-cyanophenoxy)cyclohexyl)-2-(4-((4-(4-(2,4-dioxotetrahydropyrimidin-1(2H)-yl)-1H-indol-1-yl)piperidin-1-yl)methyl)piperidin-1-yl)pyrimidine-5-carboxamide] | ≥ 50%
9 | N#Cc1ccc(O[C@H]2CC[C@H](NC(=O)c3ccc(N4CCC(CN5CCC(n6ncc7c(N8CCC(=O)NC8=O)cc(Cl)cc76)CC5)CC4)nn3)CC2)cc1Cl [EAR34, 6-(4-((4-(6-Chloro-4-(2,4-dioxotetrahydropyrimidin-1(2H)-yl)-1H-indazol-1-yl)piperidin-1-yl)methyl)piperidin-1-yl)-N-((1r,4r)-4-(3-chloro-4-cyanophenoxy)cyclohexyl)pyridazine-3-carboxamide hydrochloride] | ≥ 50%

Results, then the molecule that gave them:

Row | Dmax | Structure (SMILES)
10 | ≥ 50% | N#Cc1ccc(O[C@H]2CC[C@H](NC(=O)c3ccc(N4CCC(CN5CCC(n6ccc7c(N8CCC(=O)NC8=O)nccc76)CC5)CC4)cc3)CC2)cc1Cl [EAR197, N-((1r,4r)-4-(3-Chloro-4-cyanophenoxy)cyclohexyl)-4-(4-((4-(4-(2,4-dioxotetrahydropyrimidin-1(2H)-yl)-1H-pyrrolo[3,2-c]pyridin-1-yl)piperidin-1-yl)methyl)piperidin-1-yl)benzamide]
11 | ≥ 50% | N#Cc1ccc(O[C@H]2CC[C@H](NC(=O)c3ccc(N4CCN(C[C@H]5CC[C@H](n6ccc7c(N8CCC(=O)NC8=O)cccc76)CC5)CC4)nn3)CC2)cc1Cl [AR215, N-((1r,4r)-4-(3-Chloro-4-cyanophenoxy)cyclohexyl)-6-(4-(((1r,4r)-4-(4-(2,4-dioxotetrahydropyrimidin-1(2H)-yl)-1H-indol-1-yl)cyclohexyl)methyl)piperazin-1-yl)pyridazine-3-carboxamide hydrochloride]
12 | ≥ 50% | CC1(C)[C@H](NC(=O)c2ccc(N3CCC(CN4CCC(n5ncc6c(N7CCC(=O)NC7=O)ccnc65)CC4)CC3)cn2)C(C)(C)[C@H]1Oc1ccc(C#N)c2ncccc12 [EAR260, N-((1r,3r)-3-((8-Cyanoquinolin-5-yl)oxy)-2,2,4,4-tetramethylcyclobutyl)-5-(4-((4-(4-(2,4-dioxotetrahydropyrimidin-1(2H)-yl)-1H-pyrazolo[3,4-b]pyridin-1-yl)piperidin-1-yl)methyl)piperidin-1-yl)picolinamide hydrochloride]
13 | ≥ 50% | N#Cc1ccc(O[C@H]2CC[C@H](NC(=O)c3ccc(OC4CN(C(=O)CN5CCC(n6ccc7c(N8CCC(=O)NC8=O)cccc76)CC5)C4)nn3)CC2)cc1Cl [EAR178, N-((1r,4r)-4-(3-Chloro-4-cyanophenoxy)cyclohexyl)-6-((1-(2-(4-(4-(2,4-dioxotetrahydropyrimidin-1(2H)-yl)-1H-indol-1-yl)piperidin-1-yl)acetyl)azetidin-3-yl)oxy)pyridazine-3-carboxamide]
14 | ≥ 50% | N#Cc1ccc(O[C@H]2CC[C@H](NC(=O)c3ccc(N4CCC5(CC(CN6CCC(n7ncc8c(N9CCC(=O)NC9=O)cccc87)CC6)C5)C4)nn3)CC2)cc1Cl (some centres unmarked) [EAR233, N-((1r,4r)-4-(3-chloro-4-cyanophenoxy)cyclohexyl)-6-(2-((4-(4-(2,4-dioxotetrahydropyrimidin-1(2H)-yl)-1H-indazol-1-yl)piperidin-1-yl)methyl)-6-azaspiro[3.4]octan-6-yl)pyridazine-3-carboxamide]
15 | ≥ 50% | N#Cc1ccc(O[C@H]2CC[C@H](NC(=O)c3ccc(N4CCC[C@@H](CN5CCC(n6ccc7c(N8CCC(=O)NC8=O)cccc76)CC5)C4)nn3)CC2)cc1Cl [EAR143, N-((1r,4R)-4-(3-chloro-4-cyanophenoxy)cyclohexyl)-6-((S)-3-((4-(4-(2,4-dioxotetrahydropyrimidin-1(2H)-yl)-1H-indol-1-yl)piperidin-1-yl)methyl)piperidin-1-yl)pyridazine-3-carboxamide]
16 | ≥ 50% | N#Cc1ccc(O[C@H]2CC[C@H](NC(=O)c3cnc(N4CCC(CN5CCC(n6ccc7c(N8CCC(=O)NC8=O)nccc76)CC5)CC4)nc3)CC2)cc1Cl [EAR211, N-((1r,4r)-4-(3-chloro-4-cyanophenoxy)cyclohexyl)-2-(4-((4-(4-(2,4-dioxotetrahydropyrimidin-1(2H)-yl)-1H-pyrrolo[3,2-c]pyridin-1-yl)piperidin-1-yl)methyl)piperidin-1-yl)pyrimidine-5-carboxamide hydrochloride]
17 | ≥ 50% | CC1(C)CCN(c2ccc(C(=O)N[C@H]3CC[C@H](Oc4ccc(C#N)c(Cl)c4)CC3)nn2)CC1CN1CCC(n2ncc3c(N4CCC(=O)NC4=O)cccc32)CC1 (some centres unmarked) [EAR222, N-((1r,4r)-4-(3-chloro-4-cyanophenoxy)cyclohexyl)-6-(3-((4-(4-(2,4-dioxotetrahydropyrimidin-1(2H)-yl)-1H-indazol-1-yl)piperidin-1-yl)methyl)-4,4-dimethylpiperidin-1-yl)pyridazine-3-carboxamide]
